Measurements as given in patent US12077503B2, “Substituted cyclic amides and their use as herbicides” (FMC CORPORATION, priority 2015, dated 2024).

Columns and labels:
Assay type in all cases: in vivo
[1] = system: ryegrass, Italian (Italian ryegrass, Lolium multiflorum); assay: Test A preemergence; details: Lolium multiflorum, pre-emergence, 240 h, preemergence, read-out: Ryegrass, Italian plant response rating; for pest or weed control at 125 g/ha: 125 g ai/ha, approx. 10 d; for pest or weed control at 500 g/ha: 500 g ai/ha
In short: (§1)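 Preemergence directed soil spray on seeded pots, or postemergence application to plants 2–10 cm, one- to two-leaf. Solvent mixture non-phytotoxic, with surfactant. Scored ~10 d later, visually, 0–100 vs untreated.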

[2] = system: Galium (catchweed bedstraw, Galium aparine); assay: Test A postemergence; details: Galium, post-emergence, 240 h, postemergence, read-out: Galium plant response rating; for pest or weed control at 125 g/ha: 125 g ai/ha, visual injury on 0 to 100 scale (0 no effect, 100 complete control), approx. 10 d; for pest or weed control at 500 g/ha: 500 g ai/ha, 0 to 100 scale, 0 is no effect, 100 is complete control
In short: as §1

Kochia (Kochia scoparia) = assay: Test A postemergence; details: Bassia scoparia, post-emergence, 240 h, postemergence, read-out: Kochia plant response rating; for pest or weed control at 125 g/ha: 125 g ai/ha, visual injury on 0 to 100 scale (0 no effect, 100 complete control), approx. 10 d; for pest or weed control at 500 g/ha: 500 g ai/ha, 0 to 100 scale, 0 is no effect, 100 is complete control
In short: as §1

[3] = system: barnyardgrass (Echinochloa crus-galli); assay: Test A postemergence; details: Echinochloa crus-galli, post-emergence, 240 h, postemergence, read-out: Barnyardgrass plant response rating; for pest or weed control at 125 g/ha: 125 g ai/ha, visual injury on 0 to 100 scale (0 no effect, 100 complete control), approx. 10 d; for pest or weed control at 500 g/ha: 500 g ai/ha, 0 to 100 scale, 0 is no effect, 100 is complete control
In short: as §1

[4] = system: blackgrass (Alopecurus myosuroides); assay: Test A postemergence; details: Alopecurus myosuroides, post-emergence, 240 h, postemergence, read-out: Blackgrass plant response rating; for pest or weed control at 125 g/ha: 125 g ai/ha, visual injury on 0 to 100 scale (0 no effect, 100 complete control), approx. 10 d; for pest or weed control at 500 g/ha: 500 g ai/ha, 0 to 100 scale, 0 is no effect, 100 is complete control
In short: as §1

corn (Zea mays) = assay: Test A postemergence; details: Zea mays, post-emergence, 240 h, postemergence, read-out: Corn plant response rating; for plant injury at 125 g/ha: 125 g ai/ha, visual injury on 0 to 100 scale (0 no effect, 100 complete control), approx. 10 d; for plant injury at 500 g/ha: 500 g ai/ha, 0 to 100 scale, 0 is no effect, 100 is complete control
In short: as §1

[5] = system: giant foxtail (Setaria faberii); assay: Test A postemergence; details: Setaria faberi, post-emergence, 240 h, postemergence, read-out: Foxtail, Giant plant response rating; for pest or weed control at 125 g/ha: 125 g ai/ha, visual injury on 0 to 100 scale (0 no effect, 100 complete control), approx. 10 d; for pest or weed control at 500 g/ha: 500 g ai/ha, 0 to 100 scale, 0 is no effect, 100 is complete control
In short: as §1

[6] = system: pigweed (Amaranthus retroflexus); assay: Test A postemergence; details: Amaranthus retroflexus, post-emergence, 240 h, postemergence, read-out: Pigweed plant response rating; for pest or weed control at 125 g/ha: 125 g ai/ha, visual injury on 0 to 100 scale (0 no effect, 100 complete control), approx. 10 d; for pest or weed control at 500 g/ha: 500 g ai/ha, 0 to 100 scale, 0 is no effect, 100 is complete control
In short: as §1

[7] = system: ragweed (common ragweed, Ambrosia elatior); assay: Test A postemergence; details: Ambrosia artemisiifolia, post-emergence, 240 h, postemergence, read-out: Ragweed plant response rating; for pest or weed control at 125 g/ha: 125 g ai/ha, visual injury on 0 to 100 scale (0 no effect, 100 complete control), approx. 10 d; for pest or weed control at 500 g/ha: 500 g ai/ha, 0 to 100 scale, 0 is no effect, 100 is complete control
In short: as §1

[8] = system: ryegrass, Italian (Italian ryegrass, Lolium multiflorum); assay: Test A postemergence; details: Lolium multiflorum, post-emergence, 240 h, postemergence, read-out: Ryegrass, Italian plant response rating; for pest or weed control at 125 g/ha: 125 g ai/ha, visual injury on 0 to 100 scale (0 no effect, 100 complete control), approx. 10 d; for pest or weed control at 500 g/ha: 500 g ai/ha, 0 to 100 scale, 0 is no effect, 100 is complete control
In short: as §1

[9] = system: wheat (Triticum aestivum); assay: Test A postemergence; details: Triticum aestivum, post-emergence, 240 h, postemergence, read-out: Wheat plant response rating; for plant injury at 125 g/ha: 125 g ai/ha, visual injury on 0 to 100 scale (0 no effect, 100 complete control), approx. 10 d; for plant injury at 500 g/ha: 500 g ai/ha, 0 to 100 scale, 0 is no effect, 100 is complete control
In short: as §1

[10] = system: barnyardgrass (Echinochloa crus-galli); assay: Test B flooded paddy test; details: Echinochloa crus-galli, 250 g ai/ha, Flood; 0 to 100 scale where 0 is no effect and 100 is complete control; read-out: Barnyardgrass plant response rating
In short: (§2)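 Plants at 2-leaf stage flooded to 3 cm above soil, with compounds applied directly to paddy water and that depth maintained. Plants kept in greenhouse 13–15 d. Visual rating versus controls on a 0 (no effect) to 100 (complete control) scale.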

[11] = system: ducksalad (Heteranthera limosa); assay: Test B flooded paddy test; details: Heteranthera limosa, 250 g ai/ha, Flood; 0 to 100 scale where 0 is no effect and 100 is complete control; read-out: Ducksalad plant response rating
In short: as §2

rice (Oryra sativa) = assay: Test B flooded paddy test; details: Oryza sativa, 250 g ai/ha, Flood; 0 to 100 scale where 0 is no effect and 100 is complete control; read-out: Rice plant response rating
In short: as §2

[12] = system: sedge, umbrella (small-flower umbrella sedge, Cyperus difformis); assay: Test B flooded paddy test; details: Cyperus difformis, 250 g ai/ha, Flood; 0 to 100 scale where 0 is no effect and 100 is complete control; read-out: Sedge, Umbrella plant response rating
In short: as §2

[13] = 0 to 100 scale where 0 is no effect and 100 is complete control

Cc1cc([C@H]2CN(C)C(=O)[C@@H]2C(=O)Nc2ccc(F)c(F)c2F)ccc1Br [Compound 1101]
70%: pest or weed control at 500 g/ha ([1]; visual injury rating about 10 d after treatment, 0 to 100 scale (0 no effect, 100 complete control)) | pest or weed control at 125 g/ha [3] | plant injury at 500 g/ha (corn (Zea mays)) | pest or weed control at 125 g/ha [5]
20%: pest or weed control at 125 g/ha [8]
80%: pest or weed control at 500 g/ha [3] | pest or weed control at 500 g/ha [5]
50%: pest or weed control at 125 g/ha [2] | pest or weed control at 500 g/ha [6] | plant injury at 500 g/ha [9]
0%: pest or weed control at 125 g/ha [4] | pest or weed control at 125 g/ha [7] | pest or weed control at 500 g/ha [7] | plant injury at 125 g/ha [9] | pest or weed control at 250 g/ha (rice (Oryra sativa)) | pest or weed control at 250 g/ha [12]
30%: pest or weed control at 125 g/ha [1, 13] | pest or weed control at 125 g/ha (Kochia (Kochia scoparia)) | pest or weed control at 500 g/ha [4] | plant injury at 125 g/ha (corn (Zea mays)) | pest or weed control at 125 g/ha [6] | pest or weed control at 250 g/ha [10]
60%: pest or weed control at 500 g/ha [2] | pest or weed control at 500 g/ha (Kochia (Kochia scoparia)) | pest or weed control at 500 g/ha [8] | pest or weed control at 250 g/ha [11]

Cc1cc([C@H]2CN(C)C(=O)[C@@H]2C(=O)Nc2ccccc2S(C)(=O)=O)ccc1Br [Compound 1102]
85%: pest or weed control at 250 g/ha [11]
60%: pest or weed control at 500 g/ha [1, 13] | plant injury at 500 g/ha (corn (Zea mays)) | pest or weed control at 250 g/ha [10]
80%: pest or weed control at 125 g/ha [3] | pest or weed control at 500 g/ha [3] | pest or weed control at 125 g/ha [5]
90%: pest or weed control at 500 g/ha [5]
30%: pest or weed control at 125 g/ha [1, 13] | pest or weed control at 500 g/ha [2] | pest or weed control at 500 g/ha [8]
0%: pest or weed control at 125 g/ha [2] | pest or weed control at 125 g/ha (Kochia (Kochia scoparia)) | pest or weed control at 500 g/ha (Kochia (Kochia scoparia)) | pest or weed control at 125 g/ha [6] | pest or weed control at 500 g/ha [6] | pest or weed control at 125 g/ha [7] | pest or weed control at 125 g/ha [8] | pest or weed control at 250 g/ha (rice (Oryra sativa)) | pest or weed control at 250 g/ha [12]
50%: pest or weed control at 500 g/ha [4] | plant injury at 500 g/ha [9]
20%: pest or weed control at 125 g/ha [4] | plant injury at 125 g/ha (corn (Zea mays)) | pest or weed control at 500 g/ha [7] | plant injury at 125 g/ha [9]

CN1C[C@H](c2cscn2)[C@@H](C(=O)Nc2ccccc2F)C1=O [Compound 1112]
0%: pest or weed control at 125 g/ha [1, 13] | pest or weed control at 500 g/ha [1, 13] | pest or weed control at 125 g/ha [2] | pest or weed control at 500 g/ha [2] | pest or weed control at 125 g/ha (Kochia (Kochia scoparia)) | pest or weed control at 500 g/ha (Kochia (Kochia scoparia)) | pest or weed control at 125 g/ha [3] | pest or weed control at 500 g/ha [3] | pest or weed control at 125 g/ha [4] | pest or weed control at 500 g/ha [4] | plant injury at 125 g/ha (corn (Zea mays)) | plant injury at 500 g/ha (corn (Zea mays)) | pest or weed control at 125 g/ha [5] | pest or weed control at 500 g/ha [5] | pest or weed control at 125 g/ha [6] | pest or weed control at 500 g/ha [6] | pest or weed control at 125 g/ha [7] | pest or weed control at 500 g/ha [7] | pest or weed control at 125 g/ha [8] | pest or weed control at 500 g/ha [8] | plant injury at 125 g/ha [9] | plant injury at 500 g/ha [9] | pest or weed control at 250 g/ha [10] | pest or weed control at 250 g/ha [11]
40%: pest or weed control at 250 g/ha [12]
15%: pest or weed control at 250 g/ha (rice (Oryra sativa))
